Results published in patent US4473579A, “Antiatherosclerotic tetrasubstituted ureas and thioureas” (American Cyanamid Company, priority 1982, dated 1984).

target: T1, fatty acyl CoA:cholesterol acyl transferase (ACAT) (Rattus norvegicus, UniProt O70536); experiment: In vitro inhibition of fatty acyl CoA:cholesterol acyl transferase (ACAT), rat adrenal supernatant; assay type: biochemical; conditions: test compound final concentration 5.2 g./ml. (so in the source), pH 7.4, 37° C., 10 minutes
T1 construct: Rat adrenals were homogenized in 0.2M monobasic potassium phosphate buffer; from tissue; host or cells: rat adrenals, 1000 x g supernatant containing the microsomal fraction
T1 sequence (O70536 1-545): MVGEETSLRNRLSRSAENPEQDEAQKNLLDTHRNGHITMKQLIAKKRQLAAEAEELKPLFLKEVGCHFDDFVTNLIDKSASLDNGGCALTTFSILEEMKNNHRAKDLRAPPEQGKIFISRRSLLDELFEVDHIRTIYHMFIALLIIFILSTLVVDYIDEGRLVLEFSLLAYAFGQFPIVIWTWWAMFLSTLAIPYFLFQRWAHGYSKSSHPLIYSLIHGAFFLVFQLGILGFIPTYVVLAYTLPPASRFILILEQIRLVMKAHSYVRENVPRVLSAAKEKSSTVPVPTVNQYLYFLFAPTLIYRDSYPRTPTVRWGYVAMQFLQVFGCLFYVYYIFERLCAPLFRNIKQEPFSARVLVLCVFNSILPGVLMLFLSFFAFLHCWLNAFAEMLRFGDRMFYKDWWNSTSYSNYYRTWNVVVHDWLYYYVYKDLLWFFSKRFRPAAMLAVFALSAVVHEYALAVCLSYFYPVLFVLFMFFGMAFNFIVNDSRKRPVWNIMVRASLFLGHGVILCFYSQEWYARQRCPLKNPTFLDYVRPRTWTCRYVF
Procedure: (§1) The compounds of the present invention were assayed for two types of biological activity related to their potential use as antiatherosclerotic agents. Compounds were tested in vitro for their ability to inhibit the enzyme fatty acyl CoA:cholesterol acyl transferase (ACAT) and in vivo for serum hypolipidemic activity as measured by their ability to inhibit lipid absorption in rats. The compounds were tested for their ability to inhibit ACAT according to the following procedure:
Rat adrenals were homogenized in 0.2M monobasic potassium phosphate buffer, pH 7.4, and centrifuged at 1000 times gravity for 15 minutes at 5° C. The supernatant, containing the microsomal fraction, served as the source of the cholesterol-esterifying enzyme, fatty acyl CoA:cholesterol acyl transferase (ACAT). A mixture comprising 50 parts of adrenal supernatant, 10 parts of albumin (BSA) (50 mg./ml.), 3 parts of test compound (final concentration […].) and 500 parts of buffer was preincubated at 37° C. for 10 minutes. After treatment with 20 parts of oleoyl CoA(^14 C-[…]) the mixture was incubated at 37° C. for 10 minutes. A control mixture, omitting the test compound, was prepared and treated in the same manner. The lipids from the incubation mixture were extracted into an organic solvent and separated by thin-layer chromatography. The cholesteryl ester fraction was counted in a scintillation counter. This procedure is a modification of that described by Hashimoto, et al., Life Scie., 12 (Part II), 1-12 (1973).

% Inhibition (ACAT) [%] | Compound
95.4 | CCCCN(Cc1ccccc1)C(=O)N(CCCC)Cc1ccccc1 [1,3-Dibenzyl-1,3-di-(n-butyl)urea]
81.8 | CCCCN(Cc1ccccc1)C(=O)N(Cc1ccccc1)c1ccccc1 [1,3-Dibenzyl-1-(n-butyl)-3-phenylurea]
93.2 | CCCCN(Cc1ccccc1)C(=O)N(c1ccc2ccccc2c1)c1ccc2ccccc2c1 [1-Benzyl-1-(n-butyl)-3,3-di(2-naphthyl)urea]
75.9 | CCCCN(Cc1ccccc1)C(=O)N(c1ccccc1)c1ccccc1 [1-Benzyl-1-(n-butyl)-3,3-diphenylurea]
76.3 | CCCCN(Cc1ccccc1)C(=O)N(c1ccccc1)c1cccc2ccccc12 [1-Benzyl-1-(n-butyl)-3-(1-naphthyl)-3-phenylurea]
83.6 | CCCCN(Cc1ccccc1)C(=O)N(c1ccccc1)c1ccc2ccccc2c1 [1-Benzyl-1-(n-butyl)-3-(2-naphthyl)-3-phenylurea]
82.7 | CCCCN(Cc1ccccc1)C(=O)N(c1cccc(Cl)c1)c1ccc2ccccc2c1 [1-Benzyl-1-(n-butyl)-3-(3-chlorophenyl)-3-(2-naphthyl)urea]
72.3 | CCCCN(Cc1ccccc1)C(=O)N(c1ccccc1)c1cccc(Cl)c1 [1-Benzyl-1-(n-butyl)-3-(3-chlorophenyl)-3-phenylurea]
82.5 | CCCCN(Cc1ccccc1)C(=O)N(c1ccccc1)c1cccc(OC)c1 [1-Benzyl-1-(n-butyl)-3-(3-methoxyphenyl)-3-phenylurea]
82.0 | CCCCN(Cc1ccccc1)C(=O)N(c1ccccc1)c1cccc(C)c1 [1-Benzyl-1-(n-butyl)-3-(3-methylphenyl)-3-phenylurea]
77.8 | CCCCN(Cc1ccccc1)C(=O)N(c1ccccc1)c1ccc(OC(C)C)cc1 [1-Benzyl-1-(n-butyl)-3-(4-isopropoxyphenyl)-3-phenylurea]

test system: cholesterol absorption; experiment: Inhibition of cholesterol absorption in cholesterol/cholic acid fed rats (serum or liver cholesterol lowering); assay type: in vivo, male Sprague-Dawley rats; conditions: 0.03% of the diet; 1% cholesterol: 0.5% cholic acid diet for 2 weeks; lowering of serum or liver cholesterol relative to control rats
Procedure: as §1
Inhibition of cholesterol absorption was determined by feeding male Sprague-Dawley rats, weighing 150-170 g., a 1% cholesterol: 0.5% cholic acid diet for 2 weeks. The diet was contained compounds being tested at a dose of 0.03% of the diet. Control rats were fed the same diet without any compound. At the end of the test, the rats were sacrificed by decapitation. Blood is collected, centrifuged at 1.5 kg times gravity for 10 minutes at 4° C., and the serum is then analyzed for cholesterol and triglycerides enzymatically by the method of Trinder, P., Analyst, 77, 321 (1952) on a Centrifichem 400 Analyzer. […] The resulting neutral sterols are extracted with petroleum ether and extract analyzed for cholesterol. The effectiveness of the compound in inhibiting cholesterol absorption is measured by the lowering of either serum cholesterol or liver cholesterol relative the values for control rats.

Compound | Result (inhibition of cholesterol absorption)
CCCCN(Cc1ccccc1)C(=O)N(c1ccccc1)c1cccc(OC)c1 [1-Benzyl-1-(n-butyl)-3-(3-methoxyphenyl)-3-phenylurea] | Active
